Laboratory results from ChEMBL document CHEMBL1201862, “PubChem BioAssay data set” (2004).
The source made the active and inactive calls.

What was measured:
[1] = molecular target: T1, Nuclear receptor subfamily 0 group B member 1 (Homo sapiens, UniProt P51843); format: functional, cell-based;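 further: HEK293T cells transfected with SF-1 and DAX-1 plus StAR promoter luciferase reporter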
T1 sequence (P51843 whole entry): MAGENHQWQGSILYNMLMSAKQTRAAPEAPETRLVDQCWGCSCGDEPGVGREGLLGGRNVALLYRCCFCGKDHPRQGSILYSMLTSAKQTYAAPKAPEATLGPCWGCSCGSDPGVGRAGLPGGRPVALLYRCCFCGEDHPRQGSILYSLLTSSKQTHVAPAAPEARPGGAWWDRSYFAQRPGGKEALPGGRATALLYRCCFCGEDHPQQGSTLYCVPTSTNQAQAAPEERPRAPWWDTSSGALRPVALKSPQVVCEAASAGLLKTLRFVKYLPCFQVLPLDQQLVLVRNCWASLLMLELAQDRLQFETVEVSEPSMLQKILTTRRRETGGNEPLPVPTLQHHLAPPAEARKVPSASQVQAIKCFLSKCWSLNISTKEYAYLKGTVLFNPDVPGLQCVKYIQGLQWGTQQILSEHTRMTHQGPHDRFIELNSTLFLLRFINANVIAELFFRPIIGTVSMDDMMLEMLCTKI

cells = format: functional, cell-based
[2] = molecular target: T2, Fructose-bisphosphate aldolase (Mycobacterium tuberculosis, UniProt P9WQA3); assay: Fluorescence-based biochemical high throughput dose response assay for inhibitors of the fructose-bisphosphate aldolase (FBA) of M. tuberculosis.; format: functional
T2 sequence (P9WQA3 whole entry): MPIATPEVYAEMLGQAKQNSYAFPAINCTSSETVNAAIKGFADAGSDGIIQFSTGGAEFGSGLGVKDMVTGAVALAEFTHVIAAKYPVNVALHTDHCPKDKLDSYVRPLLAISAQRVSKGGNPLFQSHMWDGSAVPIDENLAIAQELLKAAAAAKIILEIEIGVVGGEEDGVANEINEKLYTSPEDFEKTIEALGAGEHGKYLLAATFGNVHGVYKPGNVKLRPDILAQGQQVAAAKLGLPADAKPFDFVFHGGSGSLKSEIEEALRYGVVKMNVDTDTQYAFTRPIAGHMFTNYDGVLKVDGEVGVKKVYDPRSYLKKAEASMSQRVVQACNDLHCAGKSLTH

[3] = molecular target: T3, Adenosylmethionine-8-amino-7-oxononanoate aminotransferase (Mycobacterium tuberculosis, UniProt P9WQ81); assay: Mycobacterium tuberculosis BioA enzyme inhibitor Measured in Biochemical System Using Plate Reader - 2163-02_Inhibitor_Dose_CherryPick_Activity.; format: functional, Mycobacterium tuberculosis UT205
T3 sequence (P9WQ81 whole entry): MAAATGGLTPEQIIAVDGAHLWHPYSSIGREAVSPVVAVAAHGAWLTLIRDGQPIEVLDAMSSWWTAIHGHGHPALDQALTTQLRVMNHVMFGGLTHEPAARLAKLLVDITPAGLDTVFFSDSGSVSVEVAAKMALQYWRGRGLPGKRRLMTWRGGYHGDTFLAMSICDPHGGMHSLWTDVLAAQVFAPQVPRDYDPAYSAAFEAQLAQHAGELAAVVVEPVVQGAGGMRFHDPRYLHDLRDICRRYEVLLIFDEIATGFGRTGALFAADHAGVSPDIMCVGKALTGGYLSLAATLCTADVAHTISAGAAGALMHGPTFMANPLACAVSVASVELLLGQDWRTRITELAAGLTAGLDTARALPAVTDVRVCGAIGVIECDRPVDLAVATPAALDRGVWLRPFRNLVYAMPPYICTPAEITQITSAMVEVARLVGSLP

[4] = alpha-synuclein stem-loop luciferase translation blockers – H4 neuroglioma cells, luminescence, confirmation (AID 1988); format: functional, cell-based
[5] = luciferase reporter signal suppression in cells – H4 neuroglioma cells, luminescence, dose response (AID 1990); format: functional, cell-based
[6] = reduction of Shn3 3'UTR-driven luciferase in osteoblasts – cell-based, Clone20 osteoblasts, firefly luciferase, cherry-picked, dose response (AID 624132); format: functional;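 further: firefly luciferase luminescence from reporter carrying the Shn3 3'UTR in osteoblasts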
[7] = non-specific 3'UTR reporter inhibition in Clone20-Shn3RL – cell-based, Renilla luciferase, cherry-picked, counter-screen for Shn3 inhibitor project, dose response (AID 624133); format: functional
[8] = molecular target: SWI/SNF-related matrix-associated actin-dependent regulator of chromatin subfamily A member 2 (Homo sapiens, UniProt P51531); assay: Luminescence-based cell-based high throughput dose response assay to identify activators of the function of SWI/SNF related, matrix associated, actin dependent regulator of chromatin, subfamily a, member 2 (SMARCA2, BRM).; format: functional
Sequence of SWI/SNF-related matrix-associated actin-dependent regulator of chromatin subfamily A member 2 (P51531 whole entry): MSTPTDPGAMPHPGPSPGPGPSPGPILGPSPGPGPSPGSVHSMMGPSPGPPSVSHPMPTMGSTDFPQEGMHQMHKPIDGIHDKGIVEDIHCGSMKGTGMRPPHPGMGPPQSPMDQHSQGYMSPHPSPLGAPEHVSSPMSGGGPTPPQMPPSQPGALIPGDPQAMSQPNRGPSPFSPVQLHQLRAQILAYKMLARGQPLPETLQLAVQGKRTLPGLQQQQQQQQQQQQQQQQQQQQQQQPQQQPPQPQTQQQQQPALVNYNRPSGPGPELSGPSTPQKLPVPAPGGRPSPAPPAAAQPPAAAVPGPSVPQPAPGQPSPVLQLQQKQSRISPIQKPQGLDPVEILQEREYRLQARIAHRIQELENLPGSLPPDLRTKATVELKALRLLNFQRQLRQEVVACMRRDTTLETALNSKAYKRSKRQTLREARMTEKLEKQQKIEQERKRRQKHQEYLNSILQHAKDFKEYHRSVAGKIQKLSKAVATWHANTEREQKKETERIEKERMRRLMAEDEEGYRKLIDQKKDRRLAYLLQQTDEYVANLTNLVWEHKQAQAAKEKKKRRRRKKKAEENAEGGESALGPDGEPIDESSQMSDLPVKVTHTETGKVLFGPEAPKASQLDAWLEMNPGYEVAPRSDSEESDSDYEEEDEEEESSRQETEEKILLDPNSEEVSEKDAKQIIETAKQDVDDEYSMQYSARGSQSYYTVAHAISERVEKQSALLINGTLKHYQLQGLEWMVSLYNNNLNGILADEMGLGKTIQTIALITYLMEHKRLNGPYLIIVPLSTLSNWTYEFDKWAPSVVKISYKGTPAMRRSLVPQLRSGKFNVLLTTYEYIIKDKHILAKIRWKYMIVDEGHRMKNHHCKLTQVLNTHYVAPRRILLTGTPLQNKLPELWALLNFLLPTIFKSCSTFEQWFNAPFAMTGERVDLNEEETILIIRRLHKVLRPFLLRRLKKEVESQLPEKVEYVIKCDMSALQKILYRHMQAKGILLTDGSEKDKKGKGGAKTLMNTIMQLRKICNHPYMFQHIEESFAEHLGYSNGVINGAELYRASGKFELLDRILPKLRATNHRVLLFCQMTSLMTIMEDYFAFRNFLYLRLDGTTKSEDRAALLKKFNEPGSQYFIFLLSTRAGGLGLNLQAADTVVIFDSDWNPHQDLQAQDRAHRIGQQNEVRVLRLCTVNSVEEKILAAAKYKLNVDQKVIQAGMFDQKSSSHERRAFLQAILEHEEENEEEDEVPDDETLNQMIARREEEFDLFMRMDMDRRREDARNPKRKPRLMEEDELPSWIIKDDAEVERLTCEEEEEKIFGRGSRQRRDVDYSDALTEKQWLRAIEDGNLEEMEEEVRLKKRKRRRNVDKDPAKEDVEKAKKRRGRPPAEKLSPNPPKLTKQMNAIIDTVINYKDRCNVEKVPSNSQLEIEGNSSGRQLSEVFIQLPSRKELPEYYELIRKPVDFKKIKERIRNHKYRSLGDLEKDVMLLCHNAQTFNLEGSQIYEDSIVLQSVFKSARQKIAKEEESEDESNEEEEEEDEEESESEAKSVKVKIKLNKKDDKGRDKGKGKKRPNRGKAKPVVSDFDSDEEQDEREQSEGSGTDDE

[9] = molecular target: T4, DNA repair protein RAD52 homolog (Homo sapiens, UniProt P43351); format: functional, biochemical
T4 sequence (P43351 whole entry): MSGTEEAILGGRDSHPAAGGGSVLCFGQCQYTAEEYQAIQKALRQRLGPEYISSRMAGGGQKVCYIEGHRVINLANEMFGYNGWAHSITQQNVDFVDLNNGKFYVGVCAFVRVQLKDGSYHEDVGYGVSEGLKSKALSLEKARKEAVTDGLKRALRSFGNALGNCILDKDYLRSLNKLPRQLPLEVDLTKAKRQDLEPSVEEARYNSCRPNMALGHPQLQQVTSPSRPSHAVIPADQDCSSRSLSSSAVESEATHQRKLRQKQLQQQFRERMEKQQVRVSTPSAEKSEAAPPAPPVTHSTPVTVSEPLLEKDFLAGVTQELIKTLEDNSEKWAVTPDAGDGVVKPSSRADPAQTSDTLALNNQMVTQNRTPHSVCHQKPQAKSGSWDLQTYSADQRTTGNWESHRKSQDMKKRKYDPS

[10] = Luminescence Cell-Based Dose Response HTS to Identify Inhibitors of 5'UTR Stem-Loop Driven Prion Protein mRNA Translation in H4 Neuroglioblastoma Cells. [Related pubchem assays: 1827 (Project Summary), 1813 (Primary HTS)]; format: functional
[11] = Counterscreen for activators of the function of SWI/SNF related, matrix associated, actin dependent regulator of chromatin, subfamily a, member 2 (SMARCA2, BRM): Luminescence-based cell-based high throughput dose response assay to identify non-selective compounds using the VP16 reporter assay.; format: functional
[12] = Fluorescence-based cell-based high throughput dose response assay for inhibitors of the interaction of nucleotide-binding oligomerization domain containing 2 (NOD2) and the receptor-interacting serine-threonine kinase 2 (RIPK2).; format: functional; conditions: Homo sapiens
[13] = loss of viability in HepG2 cells – cell-based, CellTiter-Glo, cherry-picked, cytotoxicity control for Shn3 inhibitor project, dose response (AID 624134); format: functional
[14] = molecular target: T5, Corticotropin-releasing factor receptor 2/Corticotropin-releasing factor-binding protein (Homo sapiens, UniProt P24387+Q13324); assay: activators of CRF receptor 2 with binding protein – uHTS hits, confirmation (AID 602473); format: functional; conditions: read-out: EC50_Mean
T5 sequence (Q13324 whole entry): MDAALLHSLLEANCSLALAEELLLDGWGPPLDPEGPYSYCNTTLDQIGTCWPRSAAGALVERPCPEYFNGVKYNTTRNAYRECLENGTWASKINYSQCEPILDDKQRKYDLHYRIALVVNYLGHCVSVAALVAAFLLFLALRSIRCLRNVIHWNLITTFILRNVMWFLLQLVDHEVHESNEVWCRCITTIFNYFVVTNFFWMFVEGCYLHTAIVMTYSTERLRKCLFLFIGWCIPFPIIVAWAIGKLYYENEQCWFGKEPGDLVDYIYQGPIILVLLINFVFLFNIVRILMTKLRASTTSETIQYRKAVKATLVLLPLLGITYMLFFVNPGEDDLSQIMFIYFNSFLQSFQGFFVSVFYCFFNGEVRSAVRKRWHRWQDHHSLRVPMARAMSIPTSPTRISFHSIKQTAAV
T5 sequence (P24387 whole entry): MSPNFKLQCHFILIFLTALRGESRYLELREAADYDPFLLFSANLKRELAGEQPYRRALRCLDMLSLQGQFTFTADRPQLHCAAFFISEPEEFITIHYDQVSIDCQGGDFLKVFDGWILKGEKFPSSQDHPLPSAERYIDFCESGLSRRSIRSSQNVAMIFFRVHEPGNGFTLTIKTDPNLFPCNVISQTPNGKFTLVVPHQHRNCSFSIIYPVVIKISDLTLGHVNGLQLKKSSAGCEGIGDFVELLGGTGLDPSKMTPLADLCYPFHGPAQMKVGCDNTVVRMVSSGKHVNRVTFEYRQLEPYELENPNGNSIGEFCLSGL

[15] = Counterscreen for inhibitors of Trypanosoma brucei methionyl tRNA synthetase (MetRS): Luminescence-based cell-based high throughput dose response assay to identify compounds that are cytotoxic to Jurkat human T lymphocyte cells.; format: functional
[16] = molecular target: T6, Methionyl-tRNA synthetase, putative (Trypanosoma brucei brucei, UniProt Q38C91); format: functional, Trypanosoma brucei brucei strain 927/4 GUTat10.1
T6 sequence (Q38C91 whole entry): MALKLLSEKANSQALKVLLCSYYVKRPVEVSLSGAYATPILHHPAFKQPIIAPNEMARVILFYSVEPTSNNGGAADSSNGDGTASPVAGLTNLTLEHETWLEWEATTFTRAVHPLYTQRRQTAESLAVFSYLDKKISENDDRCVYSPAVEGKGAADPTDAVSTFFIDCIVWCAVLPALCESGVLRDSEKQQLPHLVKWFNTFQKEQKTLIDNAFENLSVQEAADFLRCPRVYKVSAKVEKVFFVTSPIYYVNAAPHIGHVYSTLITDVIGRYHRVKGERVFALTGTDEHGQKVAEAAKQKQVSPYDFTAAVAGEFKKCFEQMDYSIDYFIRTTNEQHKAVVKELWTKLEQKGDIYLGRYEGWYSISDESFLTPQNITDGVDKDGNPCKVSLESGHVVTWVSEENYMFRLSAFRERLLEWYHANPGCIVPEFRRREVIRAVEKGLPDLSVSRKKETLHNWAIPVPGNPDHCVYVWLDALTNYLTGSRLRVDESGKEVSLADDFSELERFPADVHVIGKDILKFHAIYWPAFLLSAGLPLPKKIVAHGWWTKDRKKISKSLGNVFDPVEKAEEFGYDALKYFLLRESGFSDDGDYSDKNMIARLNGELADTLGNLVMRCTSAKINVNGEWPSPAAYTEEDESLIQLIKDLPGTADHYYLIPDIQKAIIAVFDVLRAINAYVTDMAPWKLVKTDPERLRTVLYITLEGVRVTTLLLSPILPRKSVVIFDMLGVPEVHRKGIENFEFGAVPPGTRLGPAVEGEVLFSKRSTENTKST

[17] = molecular target: T6, Methionyl-tRNA synthetase, putative; format: functional, Trypanosoma brucei brucei strain 927/4 GUTat10.1; remark: listed apart in the source
Fatty acid synthase [18] = molecular target: T7, Fatty acid synthase (Homo sapiens, UniProt P49327); assay: inhibition of human FAS-TE enzyme activity – biochemical, endpoint fluorescence intensity, uHTS hits, dose response (AID 624327); format: functional;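 further: fluorescence from hydrolysis of an O-methyl fluorescein acyl ester substrate by the enzyme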
T7 sequence (P49327 whole entry): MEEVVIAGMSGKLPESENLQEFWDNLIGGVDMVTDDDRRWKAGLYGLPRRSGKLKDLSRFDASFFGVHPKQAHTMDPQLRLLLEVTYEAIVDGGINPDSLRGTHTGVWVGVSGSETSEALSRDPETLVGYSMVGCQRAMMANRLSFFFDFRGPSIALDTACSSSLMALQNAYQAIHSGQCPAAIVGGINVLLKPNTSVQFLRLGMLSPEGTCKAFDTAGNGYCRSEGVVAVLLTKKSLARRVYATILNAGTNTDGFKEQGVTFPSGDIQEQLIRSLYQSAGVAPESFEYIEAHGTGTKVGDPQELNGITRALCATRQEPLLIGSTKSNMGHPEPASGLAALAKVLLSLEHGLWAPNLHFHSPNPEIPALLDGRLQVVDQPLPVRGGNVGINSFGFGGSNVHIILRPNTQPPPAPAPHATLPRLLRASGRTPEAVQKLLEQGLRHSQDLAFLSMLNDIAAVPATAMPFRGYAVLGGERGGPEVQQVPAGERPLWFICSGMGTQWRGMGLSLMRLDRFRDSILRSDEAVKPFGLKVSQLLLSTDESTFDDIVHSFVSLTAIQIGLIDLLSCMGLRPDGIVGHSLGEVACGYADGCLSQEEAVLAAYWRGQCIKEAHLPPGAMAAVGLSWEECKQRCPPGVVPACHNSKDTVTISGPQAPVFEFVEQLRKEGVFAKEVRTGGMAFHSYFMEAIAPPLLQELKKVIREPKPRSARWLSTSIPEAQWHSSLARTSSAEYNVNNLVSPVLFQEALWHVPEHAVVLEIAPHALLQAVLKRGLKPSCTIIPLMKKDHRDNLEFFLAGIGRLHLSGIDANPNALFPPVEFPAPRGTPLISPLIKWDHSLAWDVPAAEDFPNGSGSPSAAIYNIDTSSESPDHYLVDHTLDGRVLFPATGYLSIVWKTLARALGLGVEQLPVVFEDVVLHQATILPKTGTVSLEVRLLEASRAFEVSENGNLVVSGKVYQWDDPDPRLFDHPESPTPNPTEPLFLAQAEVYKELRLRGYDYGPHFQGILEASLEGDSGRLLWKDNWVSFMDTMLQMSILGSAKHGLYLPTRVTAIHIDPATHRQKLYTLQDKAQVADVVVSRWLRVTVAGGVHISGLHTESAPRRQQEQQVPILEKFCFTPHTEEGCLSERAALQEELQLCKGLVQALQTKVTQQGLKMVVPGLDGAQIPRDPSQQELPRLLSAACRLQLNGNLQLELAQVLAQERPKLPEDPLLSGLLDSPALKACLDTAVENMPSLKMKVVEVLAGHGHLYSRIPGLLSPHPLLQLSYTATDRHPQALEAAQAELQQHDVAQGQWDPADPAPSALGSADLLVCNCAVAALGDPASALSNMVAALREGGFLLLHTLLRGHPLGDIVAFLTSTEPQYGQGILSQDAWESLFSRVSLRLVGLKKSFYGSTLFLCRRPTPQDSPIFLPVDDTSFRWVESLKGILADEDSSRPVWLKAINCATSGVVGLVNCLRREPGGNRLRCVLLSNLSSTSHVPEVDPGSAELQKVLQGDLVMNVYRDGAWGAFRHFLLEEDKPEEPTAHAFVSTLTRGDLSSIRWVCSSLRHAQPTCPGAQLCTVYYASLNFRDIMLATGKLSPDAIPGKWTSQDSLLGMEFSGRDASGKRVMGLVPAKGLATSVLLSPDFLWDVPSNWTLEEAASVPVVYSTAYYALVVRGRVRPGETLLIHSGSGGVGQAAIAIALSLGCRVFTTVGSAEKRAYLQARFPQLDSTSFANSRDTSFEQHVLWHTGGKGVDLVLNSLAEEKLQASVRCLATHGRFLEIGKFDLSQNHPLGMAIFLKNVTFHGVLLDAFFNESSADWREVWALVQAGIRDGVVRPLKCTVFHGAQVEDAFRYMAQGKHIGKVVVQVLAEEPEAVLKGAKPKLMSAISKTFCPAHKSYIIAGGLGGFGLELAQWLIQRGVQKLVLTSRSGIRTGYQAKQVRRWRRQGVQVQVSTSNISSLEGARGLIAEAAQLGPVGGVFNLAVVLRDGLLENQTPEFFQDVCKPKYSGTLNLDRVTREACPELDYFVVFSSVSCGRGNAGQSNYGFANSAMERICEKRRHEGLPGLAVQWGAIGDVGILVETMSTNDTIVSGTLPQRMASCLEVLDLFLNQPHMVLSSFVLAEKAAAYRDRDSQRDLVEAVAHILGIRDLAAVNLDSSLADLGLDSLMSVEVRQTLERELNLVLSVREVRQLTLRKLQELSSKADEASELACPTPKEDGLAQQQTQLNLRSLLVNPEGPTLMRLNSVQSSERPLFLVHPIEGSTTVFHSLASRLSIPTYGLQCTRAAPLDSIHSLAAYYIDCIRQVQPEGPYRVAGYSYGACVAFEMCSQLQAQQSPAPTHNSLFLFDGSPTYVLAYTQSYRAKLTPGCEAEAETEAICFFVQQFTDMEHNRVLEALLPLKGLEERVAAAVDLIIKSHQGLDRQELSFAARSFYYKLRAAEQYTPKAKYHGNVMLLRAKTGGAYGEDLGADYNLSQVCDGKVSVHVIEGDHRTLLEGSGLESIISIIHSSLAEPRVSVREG

Fatty acid synthase [19] = molecular target: T7, Fatty acid synthase; assay: inhibition of human FAS-TE enzyme activity – biochemical, kinetic fluorescence intensity, dose response (AID 624326); format: functional;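 further: rate of fluorescence rise from hydrolysis of a fluorogenic O-methyl fluorescein ester substrate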
[20] = molecular target: T5, Corticotropin-releasing factor receptor 2/Corticotropin-releasing factor-binding protein; assay: Dose Response confirmation of uHTS hits for small molecule antagonists of the CRF-binding protein and CRF-R2 receptor complex.; format: functional; conditions: read-out: IC50_Mean

Structure (SMILES): COc1ccc(C(=O)Nc2cccc(OC)c2)cc1
- IC50 [1]: > 67.6 µM (inactive)
- IC50 (cells): > 67.6 µM (inactive)

Structure (SMILES): N#Cc1c(-c2ccc(Br)cc2)cc(-c2cccnc2)nc1N
- IC50 [2]: 1.2 µM (active)

Structure (SMILES): Cc1cccnc1NC(=O)COc1ccc2c(c1)CCC2
- IC50 [1]: > 67.6 µM (inactive)
- IC50 (cells): > 67.6 µM (inactive)

Structure (SMILES): Cc1ccccc1NC(=O)Cn1c(C)nc2ccc(N)cc2c1=O
- IC50 [2]: > 1.11 µM (active)

Structure (SMILES): O=C(Nc1ccc(NS(=O)(=O)c2ccccc2)cc1)c1cccnc1
- AC50 [3]: 5.75 µM (active)

Structure (SMILES): O=C1CCCc2c1cc(C(=O)NCCCN1CCOCC1)c(=O)n2-c1ccc(Cl)cc1
- AC50 [3]: 10.1 µM (active)

Structure (SMILES): COc1ccc(OC)c2sc(N(CCN(C)C)C(=O)/C=C/c3cccs3)nc12
- EC50 [4]: 6.88 µM (active)
- EC50 [5]: 8.13 µM (active)
- AC50 [6]: 12.8 µM (active)
- AC50 [7]: 25.8 µM (active)
- EC50 [8]: > 91.1 µM (inactive)
- AC50 [9]: 10.6 µM (active)
- EC50 [10]: 3.18 µM (active)
- EC50 [11]: > 91.1 µM (inactive)
- IC50 [12]: 13.3 µM (inactive)
- AC50 [13]: 19.1 µM (active)

Structure (SMILES): COCCn1c(C)cc(C(=O)COC(=O)c2ccc(Cl)c(S(N)(=O)=O)c2)c1C
- IC50 [1]: > 67.5 µM (inactive)
- IC50 (cells): > 67.5 µM (inactive)

Structure (SMILES): CCOC(=O)C1CCN(C(=O)Nc2ccc3snnc3c2)CC1
- AC50 [3]: 0.85 µM (active)

Structure (SMILES): O=C(C/C=N\OCc1ccc([N+](=O)[O-])cc1)Nc1ccc(Br)cc1
- EC50 [14]: > 53 µM (inactive)
- IC50 [15]: 83.3 µM (inactive)
- IC50 [16]: 0.784 µM (active)
- IC50 [17]: 1.25 µM (active)
- IC50 (Fatty acid synthase [18]): 10.1 µM (active)
- IC50 (Fatty acid synthase [19]): 7.6 µM (active)
- IC50 [20]: > 47.1 µM (inactive)

Structure (SMILES): N#C/C(=N\Nc1cc(Cl)cc(Cl)c1)c1nnc2n1CCCCC2
- IC50 [15]: 83.3 µM (inactive)
- IC50 [16]: 16.6 µM (inactive)
- IC50 [17]: 27.4 µM (inactive)

Structure (SMILES): Oc1ccccc1/C=N/c1cccc2ccccc12
- IC50 [2]: > 3.33 µM (active)
